According to US20220202792A1, “METHODS AND COMPOSITIONS FOR TREATING CHRONIC INFLAMMATORY INJURY, METAPLASIA, DYSPLASIA AND CANCERS OF EPITHELIAL TISSUES” (University of Houston System, priority 2019, published 2022):
Entries after “also recorded” stand apart in the source; their conditions may differ.

Experiments:
[1] = system: Barrett's stem cells (BE stem cells, Krt7+); experiment: High throughput chemical screening and dose response on GFP-labeled stem cells; type: cell-based, human; settings: for lethality towards Barrett's stem cells: screened in the background of 1 μM Ponatinib
[2] = system: esophageal squamous stem cells (ESO stem cells, Krt5+); experiment: as above; type: cell-based, human; settings: for effect on Esophageal stem cells: in the presence of 1 μM Ponatinib
human GSK3α = human GSK3α (Homo sapiens, UniProt P49840); settings: cited from earlier work
STAT1 = biological target: T1, STAT1 (Homo sapiens, UniProt P42224); settings: cited from earlier work
T1 sequence (P42224 1-750): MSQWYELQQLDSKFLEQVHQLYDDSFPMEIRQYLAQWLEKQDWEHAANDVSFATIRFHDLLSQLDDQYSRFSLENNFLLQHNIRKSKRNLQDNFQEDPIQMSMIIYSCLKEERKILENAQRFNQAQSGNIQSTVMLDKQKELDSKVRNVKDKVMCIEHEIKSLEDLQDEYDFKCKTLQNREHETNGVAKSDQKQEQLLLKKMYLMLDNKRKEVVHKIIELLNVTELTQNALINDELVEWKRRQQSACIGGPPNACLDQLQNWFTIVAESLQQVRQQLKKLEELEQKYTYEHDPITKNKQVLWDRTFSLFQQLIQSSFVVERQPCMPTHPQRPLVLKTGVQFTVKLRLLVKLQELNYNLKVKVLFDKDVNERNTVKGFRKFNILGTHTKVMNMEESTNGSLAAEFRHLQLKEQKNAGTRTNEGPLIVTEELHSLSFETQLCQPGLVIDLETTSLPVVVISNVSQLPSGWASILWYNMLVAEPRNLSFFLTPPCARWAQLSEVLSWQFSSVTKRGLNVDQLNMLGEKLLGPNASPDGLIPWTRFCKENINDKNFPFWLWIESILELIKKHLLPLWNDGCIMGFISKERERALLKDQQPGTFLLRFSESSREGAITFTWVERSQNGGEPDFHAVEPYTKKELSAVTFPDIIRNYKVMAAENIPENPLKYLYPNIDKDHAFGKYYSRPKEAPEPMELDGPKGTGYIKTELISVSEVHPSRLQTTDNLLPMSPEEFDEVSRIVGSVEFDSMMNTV

3T3-J2 feeder cells = experiment: Lethality of feeder cells during treatment; type: cell-based; settings: combination with Ponatinib
Description: It was next hypothesized that one chemical in our libraries could function with Ponatinib in a synergistic manner to specifically eradicate Barrett's stem cells while protecting and promoting esophageal stem cells. The same libraries were screened in the background of 1 μM Ponatinib. […] Among them, Adefovir Dipivoxil is a FDA approved drug, CEP-18770 and Qizartinib are in clinical trials. […] Their differential effects on Barrett's stem cells and Esophageal stem cells were validated in a dosage dependent manner (FIG. 2C; FIG. 3F).
The GFP-tagged cell lines will be seeded on multiple 384 well plates (Griener Bio-One, USA) (varying according to number of compounds in a library) with a feeder layer of irradiated 3T3-J2 fibroblast cells. The stem cell will be allowed to grow until they divide to become 4-5 cells within a colony. Afterwards they will be transported for treatment with selected chemical library (1 μM) to High Throughput Research and Screening Center at Institute of Biosciences and Technology (Houston, Tex.), Texas A&M University. Positive and negative control lanes will be allocated within each plate. […] The cells will be allowed to grow for 6 days at 37° C., 7.5% CO2 incubator after treatment. After the cells in the control lanes are at good confluency, the cells will be prepared for imaging. […]

[3] = system: taxol-resistant ovarian stem cells; experiment: Taxol-resistant ovarian stem cell xenograft animal models; type: in vivo; settings: combination with ponatinib
[4] = system: taxol-resistant ovarian stem cells; experiment: Killing of taxol-resistant ovarian stem cells in vitro; type: cell-based; settings: combination with ponatinib
[5] = biological target: ERBB2 phosphorylation (T798I) (Homo sapiens, UniProt P04626, T798I); settings: cited from earlier work
[6] = system: Barrett's stem cells and esophageal squamous stem cells xenograft; experiment: Mouse xenograft of co-injected esophageal squamous and GFP labeled Barrett's stem cells; type: in vivo, mice
Text: The effect of these chemicals on BE in a xenograft model was further examined. The esophageal squamous stem cells and GFP labeled Barrett's stem cells were mixed and co-injected into the immunodeficient mice. […] Two weeks following the treatment, the xenografts were collected and examined through histology analysis and clonogenic analysis.

[7] = system: tryptic and peptidylglutamyl activities of the proteosome; settings: cited from earlier work
[8] = system: Barrett's, dysplasia or EAC stem cells; experiment: Co-culture of esophageal stem cells with Barrett's, dysplasia or EAC stem cells; type: cell-based, human; settings: together with 1 μM Ponatinib
Description: FIG. 6. Patient-matched BE, dysplasia and cancer stem cells (Krt7+, Green) were mixed with Krt5+ (red) ESO cells and co-cultured for five days and then treated with seven selected drugs together with 1 μM Ponatinib.
BE has been known to be the precursor of the dysplastic and cancerous lesions of EAC. […] Moreover, PCA analysis of Barrett's stem cells derived from 12 patients together with dysplasia, cancer and Esophageal squamous stem cells confirmed that the stem cells of dysplasia and cancer shared very similar gene expression with Barrett's stem cells (FIGS. 4A & B). […] The effects of the eight drug hits in combination with Ponatinib were tested in the cell culture of co-seeding esophageal stem cells and Barrett's, dysplasia or EAC stem cells. […] Given these three entities always co-exist in patients with EAC, our strategies of eradicating all of them could help to eliminate the chance of recurrence of EAC patients drastically.

[9] = system: BE, dysplasia and cancer stem cells; experiment: 3D (ALI) culture of patient-matched BE, dysplasia and cancer stem cells; type: cell-based, human; settings: combined with Ponatinib
Text: FIG. 5B. Left, Scanned images of top view of BE, dysplasia and cancer stem cells (green) generated ALI structures in the presence of absence of drug combinations.

[10] = system: Barrett's stem cells (GFP) and esophageal squamous stem cells (RFP); experiment: 3D air-liquid interface (ALI) co-culture of Barrett's and esophageal stem cells; type: cell-based, human; settings: in the presence of Ponatinib
Description: A 3D culture model was generated to mimic Barrett's Esophagus in vitro. The esophageal squamous stem cells and Barrett's stem cells were co-cultured in the transwell insert. Following the creation of air-liquid interface, it was observed that the BE islands located among well-differentiated squamous epithelium that well recapitulated the histology of human BE in the patient. Given the similarity of this artificial model and human pathology, the hits were tested in this system to further validate them. […] The esophageal squamous stem cells were labeled with red fluorescent protein (RFP) while Barrett's stem cells were labeled with green fluorescent protein (GFP). Without the treatment, it was observed that a mixture of GFP and RFP labeled cells in culture.

[11] = system: chymotrypsin-like activity of proteasome; settings: cited from earlier work
[12] = system: Barrett's stem cells and Esophageal stem cells; experiment: Co-culture of Barrett's stem cell lines and Esophageal stem cells; type: cell-based, human; settings: in the presence of Ponatinib
[13] = system: dysplasia and cancer stem cells; experiment: Mice xenografted with dysplasia and cancer stem cells; type: in vivo; settings: with Ponatinib
Text: FIG. 5C. Schematic of in vivo validation of drug combinations in mice xenografted with dysplasia and cancer stem cells. Following the treatment, the xenografts were processed for histological analysis or clonogenic assays to detect the existence of stem cells.

[14] = system: chymotrypsin-like activity of the proteasome; settings: cellular; cited from earlier work

Chain of human GSK3α (P49840 whole entry): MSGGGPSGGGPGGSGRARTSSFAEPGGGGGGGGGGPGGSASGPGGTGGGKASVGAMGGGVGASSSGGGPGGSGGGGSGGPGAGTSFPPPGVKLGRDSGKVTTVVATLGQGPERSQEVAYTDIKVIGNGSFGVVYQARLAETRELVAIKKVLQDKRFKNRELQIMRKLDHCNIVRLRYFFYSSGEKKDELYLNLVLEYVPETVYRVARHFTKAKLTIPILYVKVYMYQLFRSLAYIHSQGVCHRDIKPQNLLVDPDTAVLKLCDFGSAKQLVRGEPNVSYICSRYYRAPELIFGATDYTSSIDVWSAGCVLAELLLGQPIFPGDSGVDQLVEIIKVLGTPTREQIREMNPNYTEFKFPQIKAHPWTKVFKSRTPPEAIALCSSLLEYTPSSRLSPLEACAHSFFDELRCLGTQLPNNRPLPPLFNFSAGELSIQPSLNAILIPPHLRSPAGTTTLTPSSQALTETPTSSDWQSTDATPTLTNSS
Chain of ERBB2 phosphorylation (T798I) (P04626 23-1255 T798I): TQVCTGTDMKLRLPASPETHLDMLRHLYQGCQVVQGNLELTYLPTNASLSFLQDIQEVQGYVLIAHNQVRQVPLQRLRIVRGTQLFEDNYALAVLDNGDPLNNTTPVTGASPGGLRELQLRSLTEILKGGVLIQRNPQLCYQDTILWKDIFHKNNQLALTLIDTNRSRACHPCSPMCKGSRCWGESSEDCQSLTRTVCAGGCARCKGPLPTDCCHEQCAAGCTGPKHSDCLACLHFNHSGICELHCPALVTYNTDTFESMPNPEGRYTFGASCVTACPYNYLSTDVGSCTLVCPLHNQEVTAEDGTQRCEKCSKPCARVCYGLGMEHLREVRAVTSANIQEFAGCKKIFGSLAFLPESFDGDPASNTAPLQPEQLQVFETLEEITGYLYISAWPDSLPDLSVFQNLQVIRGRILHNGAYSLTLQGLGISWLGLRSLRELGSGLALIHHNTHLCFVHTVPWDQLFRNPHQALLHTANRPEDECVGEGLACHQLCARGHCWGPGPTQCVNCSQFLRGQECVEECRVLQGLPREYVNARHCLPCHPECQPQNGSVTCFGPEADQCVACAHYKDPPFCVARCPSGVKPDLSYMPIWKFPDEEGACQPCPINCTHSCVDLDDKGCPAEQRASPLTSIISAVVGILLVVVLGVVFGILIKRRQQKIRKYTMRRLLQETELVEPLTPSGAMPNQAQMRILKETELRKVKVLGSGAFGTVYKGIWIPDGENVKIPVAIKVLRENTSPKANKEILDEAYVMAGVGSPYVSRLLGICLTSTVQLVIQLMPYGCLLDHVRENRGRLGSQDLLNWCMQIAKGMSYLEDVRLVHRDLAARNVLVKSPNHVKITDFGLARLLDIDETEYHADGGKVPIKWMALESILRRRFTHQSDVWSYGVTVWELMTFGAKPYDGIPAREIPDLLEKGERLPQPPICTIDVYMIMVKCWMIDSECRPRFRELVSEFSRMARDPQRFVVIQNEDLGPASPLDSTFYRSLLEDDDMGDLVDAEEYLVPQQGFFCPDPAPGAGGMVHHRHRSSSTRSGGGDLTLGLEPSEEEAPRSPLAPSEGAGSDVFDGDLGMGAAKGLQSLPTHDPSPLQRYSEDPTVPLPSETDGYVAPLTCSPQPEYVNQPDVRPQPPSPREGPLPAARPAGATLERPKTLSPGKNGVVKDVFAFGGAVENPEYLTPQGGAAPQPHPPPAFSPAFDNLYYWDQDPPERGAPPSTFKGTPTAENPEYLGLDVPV

## N#Cc1ccc2[nH]c(O)c(-c3ccc(CN4CCOCC4)cn3)c2c1 [AZD1080]
[1]
  lethality towards Barrett's stem cells: displayed the lethality
[1]; together with 1 μM Ponatinib
  differential effects on BE and ESO stem cells, validation over a range of dosages: appeared to be the false positive hit in the screening
[2]
  effect on Esophageal stem cells: without affecting
Human GSK3α
  Ki: 6.9 nM

## O=[N+]([O-])c1ccc2c(c1)S(=O)(=O)C=C2 [Stattic]
[1]
  lethality towards Barrett's stem cells: displayed the lethality
[2]
  effect on Esophageal stem cells: without affecting
STAT1
  selectivity over STAT1: highly selectivity

## CO[C@H]1CC[C@@H](O[C@H]2C[C@H]([C@]3(C)CC[C@]4(C[C@H](O)[C@@H](C)[C@@H]([C@@H](C)/C=C(\C)C(=O)[C@H](C)C[C@H](C)C(=O)O)O4)O3)O[C@]3(O[C@@H]([C@H]4O[C@@](O)(CO)[C@H](C)C[C@@H]4C)C[C@@H]3C)[C@@H]2C)O[C@H]1C [Nanchangmycin]
[1]
  lethality towards Barrett's stem cells: displayed the lethality
[2]
  effect on Esophageal stem cells: without affecting
3T3-J2 feeder cells
  lethality of 3T3-J2 feeder cells during the treatment: high lethality

## CC(=O)O[C@H]1C(=O)[C@@]2(C)[C@H]([C@H](OC(=O)c3ccccc3)[C@]3(O)C[C@H](OC(=O)[C@H](O)[C@@H](NC(=O)c4ccccc4)c4ccccc4)C(C)=C1C3(C)C)[C@]1(OC(C)=O)CO[C@@H]1C[C@@H]2O [taxol]
[3]
  tumor volume: reducing tumor volume
[4]
  killing taxol-resistant ovarian stem cells: synergy

## C=CC(=O)Nc1cccc(Sc2nc(Nc3ccc(N4CCN(C)CC4)cc3)ncc2Cl)c1 [WZ8040]
[1]
  lethality towards Barrett's stem cells: displayed the lethality
[2]
  effect on Esophageal stem cells: without affecting
[5]
  inhibition of ERBB2 phosphorylation (T798I): does not inhibit

## CC(C)(C)C(=O)OCOP(=O)(COCCn1cnc2c(N)ncnc21)OCOC(=O)C(C)(C)C [Adefovir Dipivoxil]
[1]
  lethality towards Barrett's stem cells: displayed the lethality
[2]
  effect on Esophageal stem cells: without affecting

## Cc1ccc(C(=O)Nc2ccc(CN3CCN(C)CC3)c(C(F)(F)F)c2)cc1C#Cc1cnc2cccnn12 [Ponatinib]
[1]; single agent screening
  survival of Barrett's stem cells: slightly decreasing the survival
[2]; single agent screening
  proliferation of esophageal stem cells: promoted the proliferation; also recorded: significantly increase the proliferation

## CC(C)C[C@H](NC(=O)[C@@H](NC(=O)c1cccc(-c2ccccc2)n1)[C@@H](C)O)B(O)O [CEP-18770, [(1R)-1-[[(2S,3R)-3-hydroxy-2-[(6-phenylpyridine-2-carbonyl)amino]butanoyl]amino]-3-methylbutyl]boronic acid]
[1]; in the background of a fixed concentration of Ponatinib
  differential of dose-response curves, BE stem cells versus normal esophageal stem cells: ~1,000 fold
[1]
  lethality towards Barrett's stem cells: displayed the lethality
[6]; NSG mice, with Ponatinib
  BE stem cells in treated structures (histological analysis): not detected
  Krt5+ ESO structures in treated samples: visibly more robust
[6]; combination with Ponatinib, clonogenic analysis
  clonogenic Barrett's stem cells from xenografts: lack of clonogenic Barrett's stem cells
[6]; combination with Ponatinib, intraperitoneally, two weeks following the treatment
  Barrett's structures in xenografts (histology): total loss
[2]
  effect on Esophageal stem cells: without affecting
[7]
  inhibition of the tryptic and peptidylglutamyl activities of the proteosome: only marginal inhibition
[8]
  growth of BE, dysplasia and cancer stem cells in co-culture with ESO cells: most effective
[9]
  eradication of BE, dysplasia and cancer stem cells in 3D (ALI) culture: eradicate
[10]
  cross sections of the ALI structures: intact esophageal squamous epithelium without any existence of Barrett's epithelium
[10]; eight Barrett's stem cell lines
  GFP labeled Barrett's stem cells in 3D ALI co-culture: disappearance
[11]
  IC50: 3.8 nM
[12]
  effect on Esophageal squamous stem cells in co-culture: promoting
[12]; nine Barrett's stem cell lines
  lethality to Barrett's stem cells in co-culture: uniform lethality to all Barrett's stem cells
[13]
  Dysplastic structures (Krt7+/Ki67+) in xenografts: diminished
  eradication of precancerous, dysplastic and cancerous stem cells in mouse xenograft models: eradicate
  stem cells cloned from treated dysplastic structures (rhodamine staining): not cloned
[14]
  IC50: 3.8 nM

## CC(C)(C)c1cc(NC(=O)Nc2ccc(-c3cn4c(n3)sc3cc(OCCN5CCOCC5)ccc34)cc2)no1 [Quizartinib]
[1]
  lethality towards Barrett's stem cells: displayed the lethality
[2]
  effect on Esophageal stem cells: without affecting
